Test results taken from the METLIN SMRT retention time set (Domingo-Almenara et al. 2019).

Experiment: gradient 5% acetonitrile 3 min, to 50% in 2 min, to 85% in 15 min, held 3 min, 100 µL/min
Conditions: column: Zorbax Extend-C18 2.1 x 50 mm; eluents: water / acetonitrile, 0.1% formic acid
How it was run: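 Standards, all pure, were combined into mixtures of ~100 molecules and run at 100 μL/min on a Zorbax Extend-C18 column (2.1 × 50 mm, 1.8 μm) with water and acetonitrile, each containing 0.1% formic acid. A coupled quadrupole time-of-flight mass spectrometer operated in positive and negative ionization mode. Retention time values come from computationally picked adduct peaks, each inspected manually.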

| RP-LC retention time | SMILES |
| --- | --- |
| 964 s | COC(=O)c1cn(CC(=O)N2CCc3ccccc3C2)c2ccccc12 |
| 668 s | Cc1nn(C)c(C)c1S(=O)(=O)N1CCC2(CC1)c1[nH]c3ccccc3c1CCN2C |
| 910 s | O=C(Cn1cnc(-c2ccc(Cl)cc2)cc1=O)NCc1ccccc1OC(F)(F)F |
| 713 s | OC[C@H]1O[C@@H](n2cnc3c(NC4CCCC4)nc(Cl)nc32)[C@@H](O)C1O (stereo not given in full) |
| 750 s | COc1ccc(CN2CC3(CCN(S(=O)(=O)c4cccnc4)CC3)C2=O)cc1 |
| 824 s | Cn1ccc(C(=O)N2CCCC2c2ccc(Cl)cc2)n1 (stereo not given) |
| 759 s | Cc1cc(=O)n(CC(=O)Nc2ccc(C(F)(F)F)cc2)c(N2CCOCC2)n1 |
| 647 s | Cc1cc(C)c(S(=O)(=O)NCCn2c(C)cnc2C2CC2)c(C)c1 |
| 780 s | Cc1cccc(Nc2c(-c3ccc(C(=O)O)cc3)nc3cnccn23)c1C |
| 676 s | COc1cc(NC(=O)N2CCN(c3cc(C)nc(N4CCCC4)n3)CC2)cc(OC)c1 |
| 740 s | CCn1c(N2CCC(C(=O)NCc3ccc4c(c3)OCO4)CC2)cc(=O)n(C)c1=O |
| 646 s | CC(=O)NCc1csc(C2CCN(C(=O)COc3ccccc3)CC2)n1 |
| 1140 s | CCOC(=O)c1noc2nc(C)nc(NC(C)c3ccccc3)c12 (stereo not given) |
| 704 s | CN1CCCn2cc(S(=O)(=O)NCc3ccccc3Cl)cc2C1=O |
| 690 s | Clc1ccc(OCc2nc(-c3ccc4c(c3)ncn4CCN3CCCC3)no2)cc1 |
| 802 s | CCN(CC)S(=O)(=O)c1ccc2c(c1)N(CC(=O)NCCCOC)C(=O)C1CCCCN21 (stereo not given) |
| 884 s | Cc1ccccc1N1CCN(C(=O)c2csc(C(=O)NC3CC3)n2)CC1 |
| 626 s | O=C(CCNc1cnc2cnccn12)NCCC1=CCCCC1 |
| 870 s | Cc1ccc2nc(-c3ccc(NS(=O)(=O)c4cn(C)c(=O)n(C)c4=O)cc3)sc2c1 |
| 756 s | Cc1nnc(-c2ccc3ccn(CC(=O)Nc4ccc5c(c4)OCCO5)c3c2)o1 |
| 650 s | CN1C(=O)[C@H]2CN(Cc3ccccc3C#N)C[C@H]2C1=O |
| 707 s | CC(C)n1c(N2CCCN(C(=O)c3ccnn3C)CC2)cc(=O)n(C(C)C)c1=O |
| 791 s | O=C(Nc1ccccc1)C1CCN(C(=O)c2ncn3c2COC(c2ccc(F)cc2)C3)CC1 (stereo not given) |

| RP-LC retention time | SMILES |
| --- | --- |
| 663 s | O=C(O)c1nnn(-c2ccc(Cl)cc2)c1-c1ccncc1 |
| 1030 s | O=C(Nc1cccc(Br)c1)N1CCc2nc(-c3ccccc3)ncc2C1 |
| 677 s | CCN1C(=O)CCc2cc(NC(=O)c3ccnn3C)ccc21 |
| 836 s | CCc1ccc(OCC(=O)Nc2ccc(S(N)(=O)=O)cc2)c(Br)c1 |
| 1010 s | Cc1oc(-c2ccccc2)nc1Cn1cnc2nc3c(cc2c1=O)CC(C)CC3 (stereo not given) |
| 975 s | O=C(Nc1ccccc1Cl)C1=Cc2ccccc2OC1 |
| 925 s | COc1ccc(OC)c(N2C=C(C#N)S(=O)(=O)c3ccc(C)cc32)c1 |
| 984 s | CCc1nn2c(CNS(=O)(=O)c3ccc(C)c(C)c3)c(-c3ccccc3)nc2s1 |
| 599 s | Cc1nn(-c2ccc(N3CCCC3)nn2)c(C)c1CCC(=O)N1CCCC1 |
| 890 s | CCCCNC(=O)c1sc2ncn(CC(=O)N3CC(C)CC(C)C3)c(=O)c2c1C (stereo not given) |
| 1010 s | Cc1ccc(N2C(=O)C3N=NN(Cc4nc(-c5ccc6c(c5)OCO6)no4)C3C2=O)cc1Cl (stereo not given) |
| 685 s | Cc1cccc(NC(=O)N2CCC(c3cc(N)on3)CC2)c1C |
| 891 s | CC(=O)N1CCc2cc(S(=O)(=O)C(C)CC(=O)N3CCN(c4cccc(Cl)c4)CC3)ccc21 (stereo not given) |
| 864 s | CC(C)CNC(=O)NC(C(=O)N1CCc2ccccc21)c1ccccc1 (stereo not given) |
| 657 s | NNC(=O)c1nnsc1-c1csnn1 |
| 616 s | Cc1cc(C)n(CCNC(=O)CN2CCN(c3ccc4c(c3)OCCO4)C2=O)n1 |
| 863 s | Cc1nc(CC(=O)Nc2nc(-c3ccc(F)cc3)cs2)cs1 |
| 834 s | CCc1ccc(NC(=O)C2CCN(S(=O)(=O)c3ccc4c(c3)CCCC(=O)N4)CC2)cc1 |
| 792 s | O=C(c1ccc2ccnc(N3CCN(c4ccc(F)cc4)CC3)c2c1)N1CCCCC1 |
| 657 s | Cc1ccc(S(=O)(=O)c2ccc(N3CCN(c4ccccn4)CC3)nn2)cc1C |
| 1030 s | CCS(=O)(=O)N1CCCc2cc(C(=O)Nc3ccc(Br)cc3)ccc21 |
| 887 s | CCn1cc(S(=O)(=O)Nc2ccc(C)c(C)c2)c2cccnc21 |
| 896 s | Cc1ccc2ncn(C3CCN(S(=O)(=O)c4ccc(F)cc4)CC3)c(=O)c2c1 |

| RP-LC retention time | SMILES |
| --- | --- |
| 586 s | CN(C)CCNC(=O)c1ccc(Nc2c(-c3ccccc3)nc3cnccn23)cc1 |
| 774 s | CCc1ccccc1NC(=O)N1CCCC1c1cc(C)on1 (stereo not given) |
| 789 s | CCN1C(=O)C2(CCN(C(=O)c3ccnn3CC)CC2)c2ccccc21 |
| 709 s | CC(C)(C)OC(=O)Cn1cnc2c(-c3ccc(F)cc3)csc2c1=O |
| 745 s | COCCN1CCn2cc(S(=O)(=O)Nc3ccc(C)c(C)c3)cc2C1=O |
| 777 s | CC(C)OCCCNC(=O)c1ccc2c(=O)n(-c3ccccc3)c(N3CCCC3)nc2c1 |
| 1080 s | O=c1ccn(-c2ccc(Cl)cc2)nc1-c1nc(-c2cccc(Br)c2)no1 |
| 1150 s | COc1cc(OC)c(NS(=O)(=O)c2cc(-c3cc(C(F)(F)F)on3)sc2C)cc1Cl |
| 895 s | COc1ccc(NC(=O)c2noc3c2CC(C)CC3)cc1OC (stereo not given) |
| 713 s | O=C(NCCN1CCOCC1)c1cc2sccc2n1Cc1ccc(Cl)cc1 |
| 1220 s | CCN(Cc1ccccc1)S(=O)(=O)c1c(C)nn(-c2ccc(-c3ccccc3)nn2)c1C |
| 1010 s | COc1ccc(OC)c2sc(NC(=O)c3cc(Cl)sc3Cl)nc12 |
| 631 s | CCc1nnc([C@@H]2CC(F)(F)CN2C(=O)c2nccn2C)o1 |
| 718 s | CCc1ccccc1S(=O)(=O)NCc1cccnc1-c1ccc(OC)cc1 |
| 1040 s | COc1ccccc1N1CCN(c2cc(SCC(=O)Nc3c(C)cc(C)cc3C)ncn2)CC1 |
| 596 s | Cc1nccn1CC(=O)N1CCCC(OCc2nc(C(C)C)no2)C1 (stereo not given) |
| 799 s | COCCN1C(=O)CCc2cc(NC(=O)COc3cccc(C)c3)ccc21 |
| 639 s | COc1ccc(-c2nc(C)cc(C)c2CNC(=O)CC2CCCC2)cc1 |
| 960 s | COc1cccc(CNC(=O)c2nnc(-c3ccc(S(=O)(=O)N4CCCCC4)cc3)o2)c1 |
| 550 s | O=C1NCCCn2cc(S(=O)(=O)N3CCN(c4ccccn4)CC3)cc21 |
| 660 s | C=CCN1CCN(C(=O)C2=NN(c3ccc(Cl)cc3)c3ncccc3S2(=O)=O)CC1 |
| 763 s | COc1ccccc1-c1noc(C2CCCN2C(=O)c2ccoc2)n1 (stereo not given) |
| 699 s | Cc1ccc(Oc2cccc(NC(=O)Cc3noc4ccccc34)c2)nn1 |

| RP-LC retention time | SMILES |
| --- | --- |
| 1170 s | CC1CCCN(S(=O)(=O)c2cc(C(=O)Nc3ccc(F)c(Cl)c3)n(C)c2)C1 (stereo not given) |
| 811 s | O=C(c1ccc(OCC2CCCN2C(=O)Cc2ccc(Cl)cc2)cc1)N1CCOCC1 (stereo not given) |
| 935 s | C#CCSc1nc2ccc([N+](=O)[O-])cc2s1 |
| 1150 s | COc1ccccc1-c1nnc(-c2ccc(C)c(S(=O)(=O)N3CCC(C)CC3)c2)o1 |
| 672 s | O=C(Cn1cnc2ccccc2c1=O)NC1CCCC1 |
| 844 s | Cc1ccc(-c2c(C#N)c(N)nc(SCC(=O)NCc3ccccc3)c2C#N)cc1 |
| 617 s | CCCN(CCC)CC(=O)N1CC(=O)Nc2ccccc21 |
| 886 s | Cc1cn2c3c(=O)n(Cc4c(F)cccc4Cl)c(=O)n(C)c3nc2n1C(C)C |
| 605 s | CCN(CC)C(=O)c1c2c(nc3ccccc13)CCCC2 |
| 818 s | CN(C1CCc2nn(CC3CC3)c(=O)n2CC1)S(=O)(=O)c1cccc(Cl)c1 (stereo not given) |
| 836 s | CC1=C(c2ccc(C)cc2)S(=O)(=O)N=C1N1CCCN(C(=O)c2cccs2)CC1 |
| 692 s | Cc1ccc(NC(=O)N2CCCC2c2nncn2C2CCCC2)c(C)c1 (stereo not given) |
| 877 s | Cc1ccc2c(c1)N(Cc1ccccc1C)N=C(C(=O)N1CCOCC1)S2(=O)=O |
| 634 s | COc1cccc(NC(=O)Cn2nc3n(c2=O)CCCC3)c1 |
| 644 s | CCN1CCN(CCNC(=O)c2cc(-c3ccc(Cl)cc3)cn2C)CC1 |
| 1080 s | Fc1ccccc1-c1nnc2sc(-c3ccc4ccccc4n3)nn12 |
| 517 s | CCN1CCC(N2CCC3(CC2)NCCc2c3[nH]c3ccc(OC)cc23)CC1 |
| 647 s | COc1ccc2c(c1)c(N1CCCC1=O)c(C(=O)NCCCN1CC(C)CC(C)C1)n2C (stereo not given) |
| 782 s | CCN(c1ccccc1C)S(=O)(=O)c1cc(-c2[nH]ncc2C(=O)N(C)C)oc1C |
| 642 s | COc1ccc(Cl)cc1NC(=O)Nc1c(-c2ccncc2)nc2ccccn12 |
| 604 s | CCc1cc(N2CCN(C(=O)c3ccccc3)CC2)nc2nnc(C)n12 |
